Laboratory results: PubChem BioAssay (NCI)
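Compound exposure: 48 hours, 5 concentrations, 96-well plates. TGI marks complete inhibition of growth.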

Tested on: RXF 393 renal
Assay: NCI-60 cell line screen, 48 h

Going from FC(F)(F)c1ccc(N=C/C=C(/Nc2ccc(C(F)(F)F)cc2)c2ccc(Cl)cc2)cc1 to O=C(O)c1ccc(Nc2c3ccccc3nc3ccccc23)cc1, the TGI rises from 26.4 µM to greater than 100 µM.

Compared with CC(C)(C)[Si](OC1CC(n2cnc3c(N)ncnc32)OC1CO)(c1ccccc1)c1ccccc1 (centres undefined), CCOc1cc2c(OCc3ccccc3)cc3c4cc(OC)c(OC)cc4c[n+](C)c3c2cc1OC is 3.2-fold lower in TGI: 29.5 µM for the first, 9.18 µM for the second.

Going from NS(=O)(=O)c1ccc(N=Nc2nc3[nH]c(=O)[nH]c(=O)c3[nH]2)cc1 to COc1ccc(C2COc3cc(OC(C)=O)c(OC(C)=O)cc3C2)cc1 (centres undefined), the TGI falls from greater than 100 µM to 34.1 µM.

Going from CC1=CC(C)C/C=C/C2C3OC3(C)C(C)C3C(Cc4c[nH]c5ccccc45)NC(=O)C23C(=O)C=CC(=O)C1O (centres undefined) to Cc1cc(C)n(C(=C(C(Cl)=C(Cl)Cl)[N+](=O)[O-])n2nc(C)cc2C)n1, the TGI rises from 2.94 µM to 16 µM (5.4-fold).

Tested on: CAKI-1 renal
Assay: NCI-60 cell line screen, 48 h

c1nc(OCC2CCCCC2)c2[nH]cnc2n1 and C/C(=N\NC(=S)N1CCCCC1)c1nc2ncccc2[nH]1 cannot be ordered by TGI: greater than 100 µM for the first, greater than 100 µM for the second.

Going from Oc1cn(-c2ccc(Cl)cc2)nc1-c1nnc(-c2ccccc2)o1 to O=C(O)c1ccc(Nc2c3ccccc3nc3ccccc23)cc1, the TGI rises from 11.1 µM to greater than 100 µM.

First: COc1ccc(N2C(=O)/C(=C(\C)c3cc4ccccc4oc3=O)N=C2c2cc([N+](=O)[O-])ccc2Cl)cc1
Second: COc1ccc(C2COc3cc(OC(C)=O)c(OC(C)=O)cc3C2)cc1 (centres undefined)
The TGI of the first is higher: greater than 100 µM for the first, 51.1 µM for the second.

Compared with O=C(O)CC(CC(=O)O)C(=O)O, Cc1cc(C)n(C(=C(C(Cl)=C(Cl)Cl)[N+](=O)[O-])n2nc(C)cc2C)n1 is lower in TGI: greater than 100 µM for the first, 8.38 µM for the second.

CC(=O)N(C)c1ccc(Nc2cc(C)[nH]c3ccc4ncnc4c23)cc1 and FC(F)(F)c1ccc(N=C/C=C(/Nc2ccc(C(F)(F)F)cc2)c2ccc(Cl)cc2)cc1 are within 1.5-fold of each other in TGI: 23.8 µM for the first, 19.6 µM for the second.

CCCCN(CCCC)CC(O)c1cc(-c2ccc(C(F)(F)F)cc2)nc(-c2ccc(C(F)(F)F)cc2)c1 (centres undefined) and CCOc1cc2c(OCc3ccccc3)cc3c4cc(OC)c(OC)cc4c[n+](C)c3c2cc1OC cannot be ordered by TGI: greater than 100 µM for the first, greater than 69.4 µM for the second.

Going from NS(=O)(=O)c1ccc(N=Nc2nc3[nH]c(=O)[nH]c(=O)c3[nH]2)cc1 to CC1=CC(C)C/C=C/C2C3OC3(C)C(C)C3C(Cc4c[nH]c5ccccc45)NC(=O)C23C(=O)C=CC(=O)C1O (centres undefined), the TGI falls from greater than 100 µM to 2.94 µM.

Tested on: SK-MEL-5 melanoma
Assay: NCI-60 cell line screen, 48 h

Compared with c1nc(OCC2CCCCC2)c2[nH]cnc2n1, C/C(=N\NC(=S)N1CCCCC1)c1nc2ncccc2[nH]1 is lower in TGI: greater than 100 µM for the first, 12.3 µM for the second.

Going from Oc1cn(-c2ccc(Cl)cc2)nc1-c1nnc(-c2ccccc2)o1 to O=C(O)c1ccc(Nc2c3ccccc3nc3ccccc23)cc1, the TGI rises from 5.13 µM to greater than 100 µM.

First: COc1ccc(N2C(=O)/C(=C(\C)c3cc4ccccc4oc3=O)N=C2c2cc([N+](=O)[O-])ccc2Cl)cc1
Second: COc1ccc(C2COc3cc(OC(C)=O)c(OC(C)=O)cc3C2)cc1 (centres undefined)
The TGI of the first is higher: greater than 100 µM for the first, 48.2 µM for the second.

First: O=C(O)CC(CC(=O)O)C(=O)O
Second: Cc1cc(C)n(C(=C(C(Cl)=C(Cl)Cl)[N+](=O)[O-])n2nc(C)cc2C)n1
The TGI of the first is higher: greater than 100 µM for the first, 3.88 µM for the second.

CC(=O)N(C)c1ccc(Nc2cc(C)[nH]c3ccc4ncnc4c23)cc1 and FC(F)(F)c1ccc(N=C/C=C(/Nc2ccc(C(F)(F)F)cc2)c2ccc(Cl)cc2)cc1 are within 1.5-fold of each other in TGI: 17.7 µM for the first, 22.2 µM for the second.

Compared with NS(=O)(=O)c1ccc(N=Nc2nc3[nH]c(=O)[nH]c(=O)c3[nH]2)cc1, CC1=CC(C)C/C=C/C2C3OC3(C)C(C)C3C(Cc4c[nH]c5ccccc45)NC(=O)C23C(=O)C=CC(=O)C1O (centres undefined) is lower in TGI: greater than 100 µM for the first, 24.4 µM for the second.

Tested on: OVCAR-8 ovarian
Assay: NCI-60 cell line screen, 48 h

Compared with c1nc(OCC2CCCCC2)c2[nH]cnc2n1, C/C(=N\NC(=S)N1CCCCC1)c1nc2ncccc2[nH]1 is lower in TGI: greater than 100 µM for the first, 34.8 µM for the second.

Going from Oc1cn(-c2ccc(Cl)cc2)nc1-c1nnc(-c2ccccc2)o1 to O=C(O)c1ccc(Nc2c3ccccc3nc3ccccc23)cc1, the TGI rises from 14.2 µM to greater than 100 µM.

Compared with COc1ccc(N2C(=O)/C(=C(\C)c3cc4ccccc4oc3=O)N=C2c2cc([N+](=O)[O-])ccc2Cl)cc1, COc1ccc(C2COc3cc(OC(C)=O)c(OC(C)=O)cc3C2)cc1 (centres undefined) is lower in TGI: greater than 100 µM for the first, 44.9 µM for the second.

Compared with O=C(O)CC(CC(=O)O)C(=O)O, Cc1cc(C)n(C(=C(C(Cl)=C(Cl)Cl)[N+](=O)[O-])n2nc(C)cc2C)n1 is lower in TGI: greater than 100 µM for the first, 9.22 µM for the second.

Compared with CC(=O)N(C)c1ccc(Nc2cc(C)[nH]c3ccc4ncnc4c23)cc1, CC(C)(C)[Si](OC1CC(n2cnc3c(N)ncnc32)OC1CO)(c1ccccc1)c1ccccc1 (centres undefined) is 1.5-fold higher in TGI: 21.5 µM for the first, 33.3 µM for the second.

First: FC(F)(F)c1ccc(N=C/C=C(/Nc2ccc(C(F)(F)F)cc2)c2ccc(Cl)cc2)cc1
Second: CCCCN(CCCC)CC(O)c1cc(-c2ccc(C(F)(F)F)cc2)nc(-c2ccc(C(F)(F)F)cc2)c1 (centres undefined)
The TGI of the first is lower: 39 µM for the first, greater than 100 µM for the second.

Going from NS(=O)(=O)c1ccc(N=Nc2nc3[nH]c(=O)[nH]c(=O)c3[nH]2)cc1 to CC1=CC(C)C/C=C/C2C3OC3(C)C(C)C3C(Cc4c[nH]c5ccccc45)NC(=O)C23C(=O)C=CC(=O)C1O (centres undefined), the TGI falls from greater than 100 µM to 54.3 µM.

CCOc1cc2c(OCc3ccccc3)cc3c4cc(OC)c(OC)cc4c[n+](C)c3c2cc1OC showed a TGI of 5.6 µM.

Tested on: SF-268 CNS
Assay: NCI-60 cell line screen, 48 h

c1nc(OCC2CCCCC2)c2[nH]cnc2n1 and C/C(=N\NC(=S)N1CCCCC1)c1nc2ncccc2[nH]1 cannot be ordered by TGI: greater than 100 µM for the first, greater than 100 µM for the second.

First: Oc1cn(-c2ccc(Cl)cc2)nc1-c1nnc(-c2ccccc2)o1
Second: O=C(O)c1ccc(Nc2c3ccccc3nc3ccccc23)cc1
The TGI of the first is lower: 17.9 µM for the first, greater than 100 µM for the second.

Compared with COc1ccc(N2C(=O)/C(=C(\C)c3cc4ccccc4oc3=O)N=C2c2cc([N+](=O)[O-])ccc2Cl)cc1, COc1ccc(C2COc3cc(OC(C)=O)c(OC(C)=O)cc3C2)cc1 (centres undefined) is lower in TGI: greater than 100 µM for the first, 37 µM for the second.

Going from O=C(O)CC(CC(=O)O)C(=O)O to Cc1cc(C)n(C(=C(C(Cl)=C(Cl)Cl)[N+](=O)[O-])n2nc(C)cc2C)n1, the TGI falls from greater than 100 µM to 16.7 µM.

CC(=O)N(C)c1ccc(Nc2cc(C)[nH]c3ccc4ncnc4c23)cc1 and CC(C)(C)[Si](OC1CC(n2cnc3c(N)ncnc32)OC1CO)(c1ccccc1)c1ccccc1 (centres undefined) are within 1.5-fold of each other in TGI: 38.7 µM for the first, 35 µM for the second.

First: FC(F)(F)c1ccc(N=C/C=C(/Nc2ccc(C(F)(F)F)cc2)c2ccc(Cl)cc2)cc1
Second: CCCCN(CCCC)CC(O)c1cc(-c2ccc(C(F)(F)F)cc2)nc(-c2ccc(C(F)(F)F)cc2)c1 (centres undefined)
The TGI of the first is lower: 33.2 µM for the first, greater than 100 µM for the second.

First: NS(=O)(=O)c1ccc(N=Nc2nc3[nH]c(=O)[nH]c(=O)c3[nH]2)cc1
Second: CC1=CC(C)C/C=C/C2C3OC3(C)C(C)C3C(Cc4c[nH]c5ccccc45)NC(=O)C23C(=O)C=CC(=O)C1O (centres undefined)
The TGI of the first is higher: greater than 100 µM for the first, 40.7 µM for the second.

In the case of CCOc1cc2c(OCc3ccccc3)cc3c4cc(OC)c(OC)cc4c[n+](C)c3c2cc1OC, the TGI is reported as 4.91 µM.
